# Measurements from US11578110B2, “Compounds for inducing tissue formation and uses thereof” (HISTIDE AG, priority 2015, dated 2023).
# No end group written: not given here.
# Tested on: hMSCs
# Assay: STRO-1 stemness marker expression in hMSCs (immunostaining, ImageJ quantification)
# Type: cell-based, Human
# Details: SEQ ID NO: 1 to 49 tested in combination with a bioactive carrier (titanium, ceramics, PEEK, hydrogel, etc.)
# Method: The cells were first fixed for 20 min with 4% paraformaldehyde/PBS at 4° C. After fixation, the cells were permeabilized in PBS containing 1% Triton X-100 for 15 min. Runx2, Osterix, Stro-1, Vinculin, Phalloidin, Osteopontin, Sox2, Sox9 antibodies were visualized by treating the cells with 1% (v/v) specific monoclonal antibodies for 1 hour at 37° C. Then the samples were incubated with Alexa fluor® 568 or 647 (F(ab′)2 fragment of IgG(H+L)) during 30 min at room temperature. The cell nuclei were counterstained in 20 ng/mL DAPI for 10 min at room temperature.
# For this type of quantification the freeware image analysis ImageJ® software was used. The raw image was first converted to an 8-bit file, and then the unsharp mask feature was used (settings 1:0.2) to remove the image background (rolling ball radius 10). After smoothing, the resulting image, which appears similar to the original photomicrograph but with minimal background, was then converted to a binary image by setting a threshold. Threshold values were determined empirically by selecting a setting, which gave the most accurate binary image for a subset of randomly selected photomicrographs. The cell area was determined by manual delineation on raw fluorescent images. Total contact area and mean contact area per cell were calculated by “analyse particles” in ImageJ®. A minimum of 30 cells per condition were analyzed. Stro-1, CD-34+, and CD-105 expressions were determined using this procedure.
# hMSCs were cultured on conventional cell culture plastic plates with or without the presence in the cell culture media of different GFR-binding compounds as defined hereins (SEQ ID NO: 50 to 104) in solution. […] This was probed by Stro-1 immunostaining after cell fixation as described in the Methods section. The quantification of Stro-1 positive contact numbers and areas was performed as described in the Methods section. A minimum of 30 cells per condition were analyzed.
# RMSD values are always calculated for a GFR-binding peptide sequence exempt from any bioactive-carrier-affinity-containing group as defined herein (e.g. cysteine, WWFWG, GTPGP, etc. . . . ). When needed i.e. when attachment to a bioactive carrier is contemplated, the bioactive-carrier-affinity-containing group is then present in the GFR-binding compound when it is biologically tested. Using the method detailed in the description, the RMSD of 57 previously reported peptide sequences have been determined (Table 6) and correlated with the expression of STRO-1 after grafted on a PET surface via a procedure as already described above. […] One should note that it is commonly admitted that the expression of STRO-1 in a cell is indicative of a cell that is in a substantially non-differentiated state and the decrease of its expression of at least about 20% is indicative of a cell that has started a processes of differentiation but which may not result in the differentiation of the cell. A decrease of more than 50% would be indicative of the presence of a significant shift towards a differentiated state. A decrease of more than 70% would be indicative of the presence of a very important shift towards a differentiated state. A sustained decrease (e.g. for at least 96 h) of more than 50% or 70% would be indicative of the presence of an even more important shift towards a differentiated state.
# Likewise, using the method detailed in the description, the RMSD of 87 GFR-binding peptide sequence representatives of the invention have been determined (Table 7) and correlated with the expression of STRO-1 after grafted on a PET surface via a procedure as already described above. SEQ ID NO: 1 to 49 were tested in combination with a bioactive carrier as defined above in the Examples Section (i.e. titanium, ceramics, PEEK, hydrogel, etc. . . . ), whereas SEQ ID NO: 1143 to 1180 were tested in solution.
row,Sequence,STRO-1 expression [%]
1,RVPSTSSVPAKTSPISILYI [SEQ ID NO: 43],15
2,HVPKPSSAPTKLSAISMLYL [SEQ ID NO: 12],28
3,NDEGLESAPTEENAISVLYF [SEQ ID NO: 4],22
4,GTPGPNDEGLESAPTGQNAISVLYF (GTPGPNDEGLEXAPTGQNAISVLYF; GFR-binding peptide; MOD_RES (12)..(12): Xaa is C or S) [SEQ ID NO: 31],32
5,ASASPSSTQVDLRPVQVRKI [SEQ ID NO: 40],36
6,RNVQSRPTQVQLNAISVLYF [SEQ ID NO: 11],24
7,RNVQSRPTQVQLSAISMLYL [SEQ ID NO: 14],16
8,GTPGPVPTGQSAISMLYL (GFR-binding peptide) [SEQ ID NO: 27],24
9,GTPGPAAPASSSVPARLSAISMLYL (not fully specified) [SEQ ID NO: 35],19
10,GIPEPSSVPEKMSATSVLYY [SEQ ID NO: 7],22
11,GTPGPASSVPTKLSAISMLYL (GTPGPAXXVPTKLSAISMLYL; GFR-binding peptide; MOD_RES (7)..(8): Xaa is C or S) [SEQ ID NO: 26],23
12,GTPGPGSAGPSSTPTKMSAISMLYL (GTPGPGSAGPXXTPTKMSAISMLYL; GFR-binding peptide; MOD_RES (11)..(12): Xaa is C or S) [SEQ ID NO: 34],26
13,GSAGPSSVPTKMSPISVLYK [SEQ ID NO: 8],31
14,AAPASSSVPTRLSAISMLYL [SEQ ID NO: 2],18
15,TVPKPSSAPTQLSAISMLYL [SEQ ID NO: 18],23
16,VPAEESPISILYI (CVPAEESPISILYI; GFR-binding peptide) [SEQ ID NO: 48],21
17,KIPKASSVPTELSATSVLYY [SEQ ID NO: 6],25

# Same assay, conditions: SEQ ID NO: 1143 to 1180 tested in solution
row,Sequence,STRO-1 expression [%]
1,STPPTSSSRVQLSAISMLYL (GFR-binding peptide) [SEQ ID NO: 1154],15
2,KIPKASSTQVGQSATSILYY (GFR-binding peptide) [SEQ ID NO: 1161],27
3,RVPSTSSAPTKMKPLSMLYV (GFR-binding peptide) [SEQ ID NO: 1169],22
4,GIPEPSSVSQELSATSMLYY (GFR-binding peptide) [SEQ ID NO: 1160],22
5,KIPKASSSRVRLSSLSTLFF (GFR-binding peptide) [SEQ ID NO: 1157],20
6,AASKASSSRVKMSPINVLYF (GFR-binding peptide) [SEQ ID NO: 1167],19
7,KIPKASSTQVRLRSVKTAKV (GFR-binding peptide) [SEQ ID NO: 1178],35
8,STPPTSSVSQKMKPLSILYV (GFR-binding peptide) [SEQ ID NO: 1170],25
9,KIPKASSTPTRLSPISMLFI (GFR-binding peptide) [SEQ ID NO: 1163],28
10,KIPKASSVPAQLEPLPIVYY (GFR-binding peptide) [SEQ ID NO: 1171],28
11,KIPKASSVPTGGSNITVQIM (GFR-binding peptide) [SEQ ID NO: 1151],32
12,RVPSTSSVPTGQSAISTLYL (GFR-binding peptide) [SEQ ID NO: 1144],19
13,GIPEPSSVSQEESSLSTLFF (GFR-binding peptide) [SEQ ID NO: 1156],19

# Same assay, conditions: grafted on a PET surface
row,Sequence,STRO-1 expression [%]
1,"LNEVLRFCGIQVPEGDEPLTY (Previously reported sequence) [SEQ ID NO: 1095, reference compound]",99
2,"KIPKPSSAPTELSAISMLYC (Previously reported sequence) [SEQ ID NO: 1133, reference compound]",80
3,"DKPEESSSTPTHAQCICSSLSEAIVSSVLSTRLVLSQISLTRAKRAFE (Previously reported sequence) [SEQ ID NO: 1121, reference compound]",87
4,"SRVLPIVVQGYVPVQDTKFLGIYYVIGPIIARVILSSSSAISSLNKS (Previously reported sequence) [SEQ ID NO: 1138, reference compound]",84
5,"AETLHTLGLSAPVIESAISDAI (Previously reported sequence) [SEQ ID NO: 1136, reference compound]",93
6,"VPTELSPISLLYLDEFEKVTLKNYQDMVVDG (Previously reported sequence) [SEQ ID NO: 1110, reference compound]",87
7,"VPTKLSPISILYKDDMGVPTYKFKYEGMSVAECGCR (Previously reported sequence) [SEQ ID NO: 1109, reference compound]",82
8,"PNYSVPAGNKPLSERE (Previously reported sequence) [SEQ ID NO: 1100, reference compound]",95
9,"SSVPAVCSATSATGPYSTATNTVVVFDVYATTVY (SSVPAVCSATSATGPYSTATNTVWFDVYATTVY; Previously reported sequence) [SEQ ID NO: 1117, reference compound]",91
10,"KIPKPSSAPTELSAISMLC (Previously reported sequence) [SEQ ID NO: 1132, reference compound]",82
11,"MQCRELVTQVTEEPISQTEDGEEQESTTTPRLKGQKKE (Previously reported sequence) [SEQ ID NO: 1104, reference compound]",85
12,"ANINKDRDNVPAATSSLSKAYNP (Previously reported sequence) [SEQ ID NO: 1119, reference compound]",92
13,"LSLLAPPEPVWNHETSYGSDCHVPTNVNAISKMIDKSNHQTG (Previously reported sequence) [SEQ ID NO: 1125, reference compound]",93
14,"SVPAVCSATSATGPYSSVTVTSWPSIVATGGTT (Previously reported sequence) [SEQ ID NO: 1114, reference compound]",92
15,"VPTKLEPISVLYKDDMGVPTLKYHYEGMAVSECGCR (Previously reported sequence) [SEQ ID NO: 1105, reference compound]",81
16,"SHQSAGDSIKSPARHSAPTHQEPLPD (Previously reported sequence) [SEQ ID NO: 1099, reference compound]",91
17,"SSVPAVCSATSATGPYSSGSVEVTFDVYATTVY (Previously reported sequence) [SEQ ID NO: 1116, reference compound]",92
18,"CCAPTELSAISVLYFDDSSNVILKKYRNMVVRACGCR (Previously reported sequence) [SEQ ID NO: 1139, reference compound]",81
19,"HIRSTTSSYVSLKSNITNRTIQTPTYSYT (Previously reported sequence) [SEQ ID NO: 1092, reference compound]",98
20,"CPKPSSAPTELSAISMLL (Previously reported sequence) [SEQ ID NO: 1130, reference compound]",79
21,"IKSPARHSAPTHQEPLP (Previously reported sequence) [SEQ ID NO: 1097, reference compound]",98
